Measured values from PMC9653173, “Trotabresib (CC-90010) in combination with adjuvant temozolomide or concomitant temozolomide plus radiotherapy in patients with newly diagnosed glioblastoma” (Neuro-Oncology Advances, 2022).
“And” between values parts separate entries of the source, which are not always exact repeats. Equal entries are not always repeated. Where two headings read alike, the source gives them in different places.

Test system: patients with newly diagnosed glioblastoma
Conditions: for TEAEs leading to discontinuation of the labelled study drug(s), patients: February 20, 2022 cutoff
Text: The phase Ib, dose-escalation part of this study explored escalating oral doses of trotabresib in combination with TMZ in the adjuvant setting and with TMZ plus RT in the concomitant setting. […] Dose-escalation decisions were made by the safety review committee, based on all available safety, pharmacokinetics, pharmacodynamics, and preliminary efficacy information, and a calculation of risk assessment using a Bayesian logistic regression model.
The primary endpoints of the study were to determine the safety and tolerability, maximum tolerated dose, and/or recommended phase II dose (RP2D) of trotabresib in combination with TMZ as adjuvant therapy, and with TMZ and RT as concomitant therapy. […] Trotabresib pharmacodynamics was an exploratory endpoint.
Adverse events (AEs) were classified using the Medical Dictionary for Regulatory Activities v18.1 or higher system organ class and preferred term. Severity of AEs was graded based on the patient’s symptoms according to the National Cancer Institute Common Terminology Criteria for Adverse Events v5.0.[35] Dose-limiting toxicities (DLTs) were defined as any of the toxicities described in Supplementary Table S2 occurring within the DLT assessment period (cycle 1 [28 days]), unless the event could clearly be determined to be unrelated to trotabresib. Screening MRI scans were performed after surgical resection and within 28 days (+3 days) prior to initiation of study treatment. Subsequent tumor assessments by MRI or CT were performed at week 10 during the concomitant treatment period and at the end of every other treatment cycle from cycle 2 onwards during the adjuvant and trotabresib monotherapy treatment periods. Best overall response (BOR) was evaluated as complete response (CR), partial response (PR), SD, progressive disease (PD), or not evaluable, according to Response Assessment in Neuro-Oncology criteria for high-grade glioma.[36] Plasma samples were collected during the first treatment cycle for investigation of trotabresib pharmacokinetics and pharmacodynamics. Plasma pharmacokinetic parameters assessed included peak plasma concentration (Cmax), time to peak plasma concentration (tmax), area under the plasma concentration–time curve (AUC), and terminal half-life (t½). Pharmacodynamic markers assessed included blood levels of CCR1 and HEXIM1 mRNA, which are established markers of BET inhibitor target engagement.[17],[22],[37],[38]

[1] = adjuvant overall (N = 18), related to labelled drug(s)

`Cn1cc(-c2cc(S(C)(=O)=O)ccc2OCC2CC2)c2ccccc2c1=O` [Trotabresib] was tested, and the “TRAEs leading to discontinuation of TMZ, related to labelled drug(s)” value (adjuvant 30 mg (n = 6)) was 1 (17) 1 (17) 1 (17) n (%), the “TRAEs leading to discontinuation of any study drug, related to labelled drug(s)” value (adjuvant 30 mg (n = 6)) was 1 (17) 1 (17) 1 (17) n (%) and the “TRAEs leading to discontinuation of trotabresib, related to labelled drug(s)” value (adjuvant 30 mg (n = 6)) was 1 (17) 1 (17) 1 (17) n (%). For the same molecule, the “TEAEs leading to discontinuation of the labelled study drug(s), patients” value (shortened to “TEAEs leading to discontinuation”) (adjuvant 30 mg (n = 6)) was 1 (17) 1 (17) 1 (17) n (%), the “TEAEs leading to discontinuation” value (adjuvant 45 mg (n = 7)) was 1 (14) 1 (14) 1 (14) n (%) and the “Recommended phase II dose (RP2D)” value (adjuvant (+ TMZ) and concomitant (+ TMZ + RT) settings, 4 days on/24 days off) was 30 mg. For the same molecule, the “Rash and other skin-related TRAEs attributed to trotabresib only” value (adjuvant overall) was 7 (39%) n (%), the “TRAEs leading to discontinuation of TMZ, related to labelled drug(s)” value (adjuvant overall (N = 18)) was 1 (6) 1 (6) 1 (6) n (%) and the “TRAEs leading to discontinuation of any study drug, related to labelled drug(s)” value (adjuvant overall (N = 18)) was 1 (6) 1 (6) 1 (6) n (%). The “TRAEs leading to discontinuation of trotabresib, related to labelled drug(s)” value (adjuvant overall (N = 18)) was 1 (6) 1 (6) 1 (6) n (%), the “TEAEs leading to discontinuation” value (adjuvant overall (N = 18)) was 2 (11) 2 (11) 2 (11) n (%) and the “ALT increased TRAE, any grade” value [1] was 1 (6) n (%). The “ALT increased TRAE, grade 3/4” value [1] was 0 n (%), the “AST increased TRAE, any grade” value [1] was 1 (6) n (%) and the “AST increased TRAE, grade 3/4” value [1] was 0 n (%). For the same molecule, the “Acneiform dermatitis TRAE, any grade” value [1] was 3 (17) n (%), the “Acneiform dermatitis TRAE, grade 3/4” value [1] was 0 n (%) and the “Anemia TRAE, any grade” value [1] was 4 (22) n (%). The “Anemia TRAE, grade 3/4” value [1] was 0 n (%), the “Any TRAE, any grade” value [1] was 16 (89) n (%) and the “Any TRAE, grade 3/4” value [1] was 9 (50) n (%). For the same molecule, the “Asthenia TRAE, any grade” value [1] was 7 (39) n (%), the “Asthenia TRAE, grade 3/4” value [1] was 1 (6) n (%) and the “Blood bilirubin increased TRAE, any grade” value [1] was 0 n (%). The “Blood bilirubin increased TRAE, grade 3/4” value [1] was 0 n (%), the “Decreased appetite TRAE, any grade” value [1] was 6 (33) n (%) and the “Decreased appetite TRAE, grade 3/4” value [1] was 0 n (%). The “Diarrhea TRAE, any grade” value [1] was 11 (61) n (%), the “Diarrhea TRAE, grade 3/4” value [1] was 1 (6) n (%) and the “Dysgeusia TRAE, any grade” value [1] was 6 (33) n (%). The “Dysgeusia TRAE, grade 3/4” value [1] was 0 n (%), the “Dyspepsia TRAE, any grade” value [1] was 2 (11) n (%) and the “Dyspepsia TRAE, grade 3/4” value [1] was 0 n (%). For the same molecule, the “Fatigue TRAE, any grade” value [1] was 2 (11) n (%), the “Fatigue TRAE, grade 3/4” value [1] was 0 n (%) and the “Hyperbilirubinemia TRAE, any grade” value [1] was 6 (33) n (%). The “Hyperbilirubinemia TRAE, grade 3/4” value [1] was 1 (6) n (%), the “Hyperglycemia TRAE, any grade” value [1] was 4 (22) n (%) and the “Hyperglycemia TRAE, grade 3/4” value [1] was 1 (6) n (%). The “Hypophosphatemia TRAE, any grade” value [1] was 2 (11) n (%), the “Hypophosphatemia TRAE, grade 3/4” value [1] was 0 n (%) and the “Hypotension TRAE, any grade” value [1] was 2 (11) n (%). The “Hypotension TRAE, grade 3/4” value [1] was 0 n (%), the “Insomnia TRAE, any grade” value [1] was 2 (11) n (%) and the “Insomnia TRAE, grade 3/4” value [1] was 0 n (%). The “Intracranial hemorrhage TRAE, any grade” value [1] was 1 (6) n (%), the “Intracranial hemorrhage TRAE, grade 3/4” value [1] was 1 (6) n (%) and the “Leukopenia TRAE, any grade” value [1] was 1 (6) n (%). The “Leukopenia TRAE, grade 3/4” value [1] was 0 n (%), the “Lymphopenia TRAE, any grade” value [1] was 2 (11) n (%) and the “Lymphopenia TRAE, grade 3/4” value [1] was 1 (6) n (%). The “Nausea TRAE, any grade” value [1] was 9 (50) n (%), the “Nausea TRAE, grade 3/4” value [1] was 0 n (%) and the “Neutropenia TRAE, any grade” value [1] was 5 (28) n (%). The “Neutropenia TRAE, grade 3/4” value [1] was 3 (17) n (%), the “Pruritus TRAE, any grade” value [1] was 3 (17) n (%) and the “Pruritus TRAE, grade 3/4” value [1] was 0 n (%). For the same molecule, the “Rash TRAE, any grade” value [1] was 5 (28) n (%), the “Rash TRAE, grade 3/4” value [1] was 0 n (%) and the “Seizure TRAE, any grade” value [1] was 0 n (%). The “Seizure TRAE, grade 3/4” value [1] was 0 n (%), the “Thrombocytopenia TRAE, any grade” value [1] was 10 (56%) n (%) and 10 (56) n (%) and the “Thrombocytopenia TRAE, grade 3/4” value [1] was 7 (39%) n (%) and 7 (39) n (%). For the same molecule, the “Vomiting TRAE, any grade” value [1] was 4 (22) n (%).
